Measurements as given in ChEMBL document CHEMBL4715760, “Balancing potency, metabolic stability and permeability in pyrrolopyrimidine-based EGFR inhibitors” (Eur J Med Chem, 2016).

How the values were obtained:
A-431 = test: Antiproliferative activity against human A431 cells assessed as inhibition of cell growth incubated for 72 hrs by Cell Titer Glo luminescent cell viability assay; type: functional, cell-based; settings: A-431, 72 h
[1] = Protein binding in plasma (unknown origin) assessed as unbound fraction at 5 uM by LC-MS/MS based equilibrium dialysis analysis
[2] = Metabolic stability in pooled human liver microsomes assessed as half life at 3 uM measured up to 45 mins in presence of NADPH by LC-MS/MS analysis; type: ADME, Microsome; settings: pooled liver microsomes
[3] = Apparent permeability from basolateral to apical side in human Caco2 cells at 10 uM measured for 120 mins by LC-MS/MS analysis; settings: Caco-2
[4] = Metabolic stability in pooled human liver microsomes assessed as Clearance at 3 uM measured up to 45 mins in presence of NADPH by LC-MS/MS analysis; type: ADME, Microsome; settings: pooled liver microsomes, read-out: CLH
[5] = biological target: MAP kinase-activated protein kinase 2 (Homo sapiens) (UniProt P49137); test: Inhibition of recombinant human His-tagged full length MAPKAPK2 expressed in Escherichia coli expression system at 500 nM using Ser/Thr 04 as substrate incubated for 1 hr in presence of ATP at its Km concentration by Z'-LYTE assay relative to control
Sequence of MAP kinase-activated protein kinase 2 (Homo sapiens) (P49137 whole entry, looked up): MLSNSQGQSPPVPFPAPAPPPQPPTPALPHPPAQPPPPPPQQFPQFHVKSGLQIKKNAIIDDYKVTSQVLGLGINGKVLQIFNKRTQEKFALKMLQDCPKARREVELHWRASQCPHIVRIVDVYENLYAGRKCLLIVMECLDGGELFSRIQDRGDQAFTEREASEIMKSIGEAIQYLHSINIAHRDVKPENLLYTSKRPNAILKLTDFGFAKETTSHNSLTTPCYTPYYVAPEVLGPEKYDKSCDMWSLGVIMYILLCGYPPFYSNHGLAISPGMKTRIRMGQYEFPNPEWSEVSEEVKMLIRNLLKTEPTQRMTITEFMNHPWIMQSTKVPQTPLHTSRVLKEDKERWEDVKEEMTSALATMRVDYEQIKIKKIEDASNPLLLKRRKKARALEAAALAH

| IC50 (A-431) [nM] | fraction unbound at 5 µM [1] | half-life at 3 µM [2] [min] | Papp B→A at 2 h, 10 µM [3] [×10⁻⁶ cm/s] | microsomal CLint at 3 µM [4] [µL/min/mg] | inhibition [5] [%] | SMILES |
| --- | --- | --- | --- | --- | --- | --- |
| 400 |  |  |  |  |  | COc1ccccc1-c1cc2c(N[C@H](CO)c3ccccc3)ncnc2[nH]1 |
|  | 0.117 | 31.7 | 31 | 43.8 | -1 | C#Cc1cccc(Nc2ncnc3cc(OCCOC)c(OCCOC)cc23)c1 [ERLOTINIB] |
